These results are taken from patent US20240166643A1, “IMIDAZO[1,2-A]PYRIDINE COMPOUNDS AND THEIR USE IN THERAPY” (Imperial College Innovations Limited, priority 2020, published 2024).

A short description of one data set: in vitro. Conditions: male, Sprague-Dawley, rat, pooled cryopreserved rat hepatocytes, pH 7.4.
For another data set, the target named is Human NMT1 (HsNMT1) (Homo sapiens, UniProt P30419). Nature of the data set: biochemical.
The test system of data set [1] is Plasmodium falciparum 3D7. Nature of the data set: SYBR Green assay, Plasmodium falciparum strain 3D7. The note with it: P. falciparum strain 3D7, 96 h incubation, read-out: Pf EC50 strain 3D7. It counts as cell-based.
Data set [2] has as its target Plasmodium vivax (Pv) NMT (Plasmodium vivax (strain Salvador I), UniProt A5K1A2). Nature of the data set: biochemical.
The subject of data set [3] is Plasmodium falciparum strain NF54. Nature of the data set: SYBR Green assay, Plasmodium falciparum strain NF54. Conditions: NF54, read-out: Pf EC50 strain NF54.
Data set [4] is described as follows: Rat clearance and bioavailability (iv and oral dosing). It counts as in vivo. Conditions: male, Sprague-Dawley, plasma; for half-life: iv 1 mg/kg, read-out: Rat iv t1/2 (converted).
The subject of data set [5] is P. falciparum Pf3D7^0087/N9. Nature of the data set: Mouse malaria model, NODscidIL2Rγnull mice engrafted with human erythrocytes. Conditions: for average parasitemia values: 50 mg/kg po per day on day 3, 4, 5 and 6 post-infection.
Where [6] appears, read: oral 5 mg/kg, cassette dosing of 4 compounds.

pEC50, pIC50: −log10 of the molar value. Read-outs that look alike come from different tables or passages of the source. Marks after values point to notes of the source that are not given here.

As a reminder, the pIC50 is the IC50 on a negative log10 scale, so that one unit is a factor of ten. Read a high pIC50 as a small IC50. The term pEC50 denotes the EC50 on a negative log10 scale, so that one unit is a factor of ten. Usually bioavailability stands for the share of a dose that reaches the circulation, judged against a reference dose that is usually intravenous. Low readings indicate poor availability, high ones good availability.

Chain of Human NMT1 (HsNMT1) (P30419 whole entry, looked up): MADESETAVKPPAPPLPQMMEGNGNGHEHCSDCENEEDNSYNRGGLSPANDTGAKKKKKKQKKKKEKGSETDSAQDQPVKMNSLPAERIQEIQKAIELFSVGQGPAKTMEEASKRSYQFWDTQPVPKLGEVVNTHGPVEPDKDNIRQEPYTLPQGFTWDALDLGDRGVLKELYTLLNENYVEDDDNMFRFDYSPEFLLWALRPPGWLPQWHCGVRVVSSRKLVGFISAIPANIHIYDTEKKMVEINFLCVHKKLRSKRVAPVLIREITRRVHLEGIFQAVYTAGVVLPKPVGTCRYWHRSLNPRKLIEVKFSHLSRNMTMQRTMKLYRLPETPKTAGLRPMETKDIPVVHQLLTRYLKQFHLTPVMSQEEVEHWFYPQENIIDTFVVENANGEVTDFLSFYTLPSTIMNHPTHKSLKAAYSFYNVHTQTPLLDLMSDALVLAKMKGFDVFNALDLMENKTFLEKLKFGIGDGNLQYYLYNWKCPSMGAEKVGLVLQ
Chain of Plasmodium vivax (Pv) NMT (A5K1A2 1-410): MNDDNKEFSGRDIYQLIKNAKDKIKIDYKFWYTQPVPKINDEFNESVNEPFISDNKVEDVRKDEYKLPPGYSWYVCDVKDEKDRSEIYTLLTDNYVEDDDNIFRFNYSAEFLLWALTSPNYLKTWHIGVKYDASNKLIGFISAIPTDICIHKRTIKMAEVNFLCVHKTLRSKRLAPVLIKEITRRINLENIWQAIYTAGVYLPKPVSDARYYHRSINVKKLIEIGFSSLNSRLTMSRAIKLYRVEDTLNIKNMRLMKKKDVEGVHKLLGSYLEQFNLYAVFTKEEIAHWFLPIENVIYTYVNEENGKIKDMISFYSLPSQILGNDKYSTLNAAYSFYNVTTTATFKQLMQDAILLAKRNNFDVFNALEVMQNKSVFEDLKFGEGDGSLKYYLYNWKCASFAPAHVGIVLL

In the case of `COc1cnc(N2CCN(C)[C@@H](C)C2)nc1N1CC(C(=O)NC(C)(C)c2cnc3ccccn23)C1` [Example 85, 1-{2-[(3S)-3,4-dimethylpiperazin-1-yl]-5-methoxypyrimidin-4-yl}-N-(2-{imidazo[1,2-a]pyridin-3-yl}propan-2-yl)azetidine-3-carboxamide], the half-life at 1 µM in “in vitro” was over 3 h. Further, the pIC50 was 8.20 at Human NMT1 (HsNMT1) and 8.10 in data set [2]. Besides, in data set [1], the pEC50 is 7.85.
As to `COc1cnc(N2CCCNCC2)nc1N1CC(C(=O)NCc2cnc3ccccn23)C1` [Example 19], the pEC50 in data set [3] is 5.44. The pIC50 in data set [2] was 7.23.
`COc1cnc(N2CCN[C@H](C)C2)nc1N1CC(C(=O)NC(C)(C)c2cnc3ccccn23)C1` [Example 36]: the pEC50 in data set [3] is 7.92. In data set [2], this compound gave a pIC50 of 8.21.
The matching figures for `CC1CN(c2ncc(F)c(N3CC(C(=O)NCc4cnc5ccccn45)C3)n2)CCN1` (stereo not shown) [Example 28]: 5.52 and 7.02.
The compound `C[C@@H]1CN(c2ncc(Cl)c(N3CC(C(=O)NC(C)(C)c4cnc5ccccn45)C3)n2)C[C@H](C)N1C` [Example 89, 1-{5-chloro-2-[(3R,5S)-3,4,5-trimethylpiperazin-1-yl]pyrimidin-4-yl}-N-(2-{imidazo[1,2-a]pyridin-3-yl}propan-2-yl)azetidine-3-carboxamide] yielded a half-life at 1 µM in “in vitro” of over 3 h. Moreover, the pIC50 at Human NMT1 (HsNMT1) is 7.57; in data set [2], 7.92. The negative logarithm of the EC50 (pEC50) in data set [1] was 7.06.
Take `CN1CCCN(c2ncc(F)c(N3CC(C(=O)NCc4cnc5ccccn45)C3)n2)CC1` [Example 52]: in data set [3], the negative logarithm of the EC50 (pEC50) is under 5.00. This compound also gave a pIC50 in data set [2] of 7.33.
`CN1CCN(c2ncc(Cl)c(N3CC(C(=O)N(C)C(C)(C)c4cnc5ccccn45)C3)n2)CC1` [Example 73] had a half-life at 1 µM in the data set “in vitro” of over 3 h. The half-life in data set [4] (cassette dosing of 4 compounds) is 3.6 h. This compound showed a bioavailability in data set [4] (setting [6]) of 65%. Besides, in data set [1], the pEC50 was 6.09.
Compound `C[C@H]1CN(c2ncc(Cl)c(N3CCC(C(=O)NC(C)(C)c4cnc5ccccn45)CC3)n2)CCN1C` [Example 101, 1-{5-chloro-2-[(3S)-3,4-dimethylpiperazin-1-yl]pyrimidin-4-yl}-N-(2-{imidazo[1,2-a]pyridin-3-yl}propan-2-yl)piperidine-4-carboxamide] had a half-life at 1 µM in “in vitro” of 1.74 h. Moreover, the half-life in data set [4] (cassette dosing of 4 compounds) is 5.4 h. The same compound displayed a bioavailability in data set [4] (setting [6]) of 32%. Further, the pIC50 on Human NMT1 (HsNMT1) was 6.51; in data set [2], 7.48. Besides, in data set [1], the pEC50 was under 6.00.
As to `CCN(CC)CCCC(C)Nc1ccnc2cc(Cl)ccc12` (stereo not shown) [chloroquine, reference compound], in data set [5] (4×50 mg/kg p.o., day 7), the “mice / smears parasite free” value is “parasite-free”.
Compound `C[C@@H]1CN(c2ncc(F)c(N3CC(C(=O)NC(C)(C)c4cnc5ccccn45)C3)n2)CCN1C` [Example 84, 1-{2-[(3R)-3,4-dimethylpiperazin-1-yl]-5-fluoropyrimidin-4-yl}-N-(2-{imidazo[1,2-a]pyridin-3-yl}propan-2-yl)azetidine-3-carboxamide] yielded a half-life at 1 µM in the data set “in vitro” of 2.41 h. Besides, the pIC50 against Human NMT1 (HsNMT1) is 7.48; in data set [2], 8.34. The pEC50 in data set [1] is 7.47.
Turning to `C[C@H]1CN(C)CCN1c1ncc(Cl)c(N2CC(C(=O)N(C)C(C)(C)c3cnc4ccccn34)C2)n1` [Example 107, 1-{5-chloro-2-[(2S)-2,4-dimethylpiperazin-1-yl]pyrimidin-4-yl}-N-(2-{imidazo[1,2-a]pyridin-3-yl}propan-2-yl)-N-methylazetidine-3-carboxamide], in data set [4] (cassette dosing of 4 compounds), the half-life is 1.7 h. The compound also came in with a bioavailability in data set [4] (setting [6]) of 37%. In addition, the negative logarithm of the EC50 (pEC50) in data set [1] was 6.85.
In the case of `CN1CCN(c2ncc(F)c(N3CC(C(=O)NC(C)(C)c4cnc5c(F)cccn45)C3)n2)CC1` [Example 61], the half-life at 1 µM in “in vitro” was over 3 h. Besides, in data set [1], the pEC50 was 6.59. In data set [2], the pIC50 is 7.89.
For the compound `CC1CN(c2ncc(F)c(N3CC(C(=O)NC(C)(C)c4cnc5ccccn45)C3)n2)C[C@H](C)N1C` (stereo partly drawn) [Example 96, 1-{5-fluoro-2-[(3S,5S)S-3,4,5-trimethylpiperazin-1-yl]pyrimidin-4-yl}-N-(2-{imidazo[1,2-a]pyridin-3-yl}propan-2-yl)azetidine-3-carboxamide], the half-life at 1 µM in “in vitro” was over 3 h. The pIC50 was 7.51 on Human NMT1 (HsNMT1) and 6.89 in data set [2]. Also, in data set [1], the pEC50 is under 6.04.
Compound `Cc1cnc(N2CCN(C)CC2)nc1N1CC(C(=O)NC(C)(C)c2cnc3ccccn23)C1` [Example 66] returned a half-life at 1 µM in the data set “in vitro” of over 3 h. Further, the pEC50 in data set [1] was 6.49. For the same compound, in data set [2], the pIC50 is 7.54.
On the same counts, the results for `Cc1ccc2ncc(C(C)(C)NC(=O)C3CN(c4nc(N5CCN(C)CC5)ncc4F)C3)n2c1` [Example 60] are 2.41 h, 6.62 and 6.96.
On the same counts, the results for `CN1CCN(c2ncc(F)c(N3CC(C)(C(=O)NC(C)(C)c4cnc5ccccn45)C3)n2)CC1` [Example 65] are 2.41 h, under 6.00 and 7.05.
The compound `CC(C)N1CCN(c2ncc(Cl)c(N3CC(C(=O)NC(C)(C)c4cnc5ccccn45)C3)n2)CC1` [Example 71] displayed a half-life at 1 µM in “in vitro” of over 3 h. The figures for the pIC50 (on Human NMT1 (HsNMT1); in data set [2]) were 7.14 and 7.96, respectively. The pEC50 in data set [1] was 6.25.
On to `COCCN1CCN(c2ncc(Cl)c(N3CC(C(=O)NC(C)(C)c4cnc5ccccn45)C3)n2)CC1` [Example 72], for which the half-life at 1 µM in “in vitro” was over 3 h. The half-life in data set [4] (cassette dosing of 4 compounds) was 2.7 h. Moreover, the bioavailability in data set [4] (setting [6]) worked out at 34%. The negative logarithm of the IC50 (pIC50) on Human NMT1 (HsNMT1) is 7.09; in data set [2] it was 8.11. Moreover, the pEC50 in data set [1] is under 6.23.
Regarding `C[C@@H]1CN(c2ncc(F)c(N3CC(C(=O)NC(C)(C)c4cnc5ccccn45)C3)n2)C[C@H](C)N1` [Example 44], the half-life at 1 µM in the data set “in vitro” was over 3 h. In addition, the pIC50 on Human NMT1 (HsNMT1) is 6.92; in data set [2], 7.49. The negative logarithm of the EC50 (pEC50) in data set [1] was 6.27.
Turning to `CCN1CCN(c2ncc(Cl)c(N3CC(C(=O)NC(C)(C)c4cnc5ccccn45)C3)n2)CC1` [Example 70], the half-life at 1 µM in the data set “in vitro” is over 3 h. In addition, the negative-log EC50 (pEC50) in data set [1] is 6.39. In addition, the pIC50 in data set [2] is 8.07.
`CN1CCN(c2ncc(F)c(N3CC(C(=O)N(C)C(C)(C)c4cnc5ccccn45)C3)n2)CC1` [Example 78] returned a half-life at 1 µM in “in vitro” of over 3 h. The half-life in data set [4] (cassette dosing of 4 compounds) is 2.3 h. Besides, in data set [4] (setting [6]), the bioavailability came out at 73%. Moreover, the results for the negative-log IC50 (pIC50) (on Human NMT1 (HsNMT1); in data set [2]) were 6.40 and 6.92, respectively. Further, in data set [1], the pEC50 is under 6.00.
Regarding `C[C@@H]1CN(c2ncc(F)c(N3CC(C(=O)NC(C)(C)c4cnc5ccccn45)C3)n2)C[C@H](C)N1C` [Example 90, 1-{5-fluoro-2-[(3R,5S)-3,4,5-trimethylpiperazin-1-yl]pyrimidin-4-yl}-N-(2-{imidazo[1,2-a]pyridin-3-yl}propan-2-yl)azetidine-3-carboxamide], in the data set “in vitro”, the half-life at 1 µM is over 3 h. The figures for the pIC50 (on Human NMT1 (HsNMT1); in data set [2]) were 7.03 and 7.72, respectively. Moreover, the pEC50 in data set [1] was 6.52.
On the same counts, the results for `C[C@H]1CN(c2ncc(Cl)c(N3CC(C(=O)NC(C)(C)c4cnc5ccccn45)C3)n2)C[C@H](C)N1C` [Example 95, 1-{5-chloro-2-[(3S,5S)-3,4,5-trimethylpiperazin-1-yl]pyrimidin-4-yl}-N-(2-{imidazo[1,2-a]pyridin-3-yl}propan-2-yl)azetidine-3-carboxamide] are 1.51 h, 7.77, 7.47 and 6.82.
On the same counts, the results for `COCC1CN(c2ncc(Cl)c(N3CC(C(=O)NC(C)(C)c4cnc5ccccn45)C3)n2)CCN1C` (stereo not shown) [Example 80] are 0.743 h, 7.64, 8.10 and 7.01.
In the data set “in vitro”, `CN1CCN(c2ncc(Cl)c(N3CCC(C(=O)NC(C)(C)c4cnc5ccccn45)CC3)n2)CC1` [Example 77] displayed a half-life at 1 µM of 1.49 h. In addition, the pEC50 in data set [1] is under 6.00. In data set [2], this compound gave a pIC50 of 7.13.
With `CCN(CC)CCCC(C)Nc1ccnc2cc(Cl)ccc12` (stereo not shown) [Chloroquine (CQ), chloroquine, reference compound], the average parasitemia values in data set [5] (day 0 post infection) is reported as 0.01%; in data set [5] (day 3 post infection), 0.80%; in data set [5] (day 4 post infection), 0.24%; in data set [5] (day 5 post infection), 0.05%; in data set [5] (day 6 post infection) it was 0.01%; in data set [5] (day 7 post infection), 0.00* %.
Consider `O=C(NCc1nnc2ccccn12)C1CN(c2nc(N3CCCNCC3)ncc2Cl)C1` [Example 112], for which the pEC50 in data set [3] is under 5.00. At Human NMT1 (HsNMT1), the pIC50 was 6.50.
As for `CC1CN(c2ncc(Cl)c(N3CC(C(=O)N(C)C(C)(C)c4cnc5ccccn45)C3)n2)CCN1C` (stereo not shown) [Example 74], the half-life at 1 µM in the data set “in vitro” is over 3 h. Moreover, the half-life in data set [4] (administered as a single compound) was 2.2 h. Also, the bioavailability in data set [4] (oral 10 mg/kg, administered as a single compound) is 28%. Besides, in data set [1], the pEC50 is 6.92.
